The NIST ThermoML archive (doi:10.1021/acs.jced.9b00046)
± gives the expanded uncertainty stated by the source.

Details: 99.6 kPa, Liquid; for viscosity: Capillary tube (Ostwald / Ubbelohde) method; for mass density: Vibrating tube method

CNC(C)=O [N-methylacetamide]
viscosity (308.15 K): 3.488 ± 0.043 mPa·s | mass density (308.15 K): 945.71 ± 1.9 kg/m3 | viscosity (313.15 K): 3.073 ± 0.038 mPa·s | mass density (313.15 K): 941.53 ± 1.9 kg/m3 | viscosity (318.15 K): 2.723 ± 0.034 mPa·s | mass density (318.15 K): 937.33 ± 1.9 kg/m3 | viscosity (323.15 K): 2.438 ± 0.03 mPa·s | mass density (323.15 K): 933.16 ± 1.9 kg/m3 | viscosity (328.15 K): 2.194 ± 0.027 mPa·s | mass density (328.15 K): 928.93 ± 1.9 kg/m3
